Results on 19 compounds are retold here after ChEMBL document CHEMBL1134695, “Synthesis and evaluation of novel quinolinones as HIV-1 reverse transcriptase inhibitors” (Bioorg Med Chem Lett, 2001).

SMILES strings stand for the structures. pIC50: −log10 of the molar value.

Test [1] has as its system Human immunodeficiency virus 1. The experiment in a line: Antiviral activity against HIV-1 using antiinfectivity assay. The format is functional, organism-based.
Test [2] deals with Human immunodeficiency virus type 1 reverse transcriptase (Human immunodeficiency virus 1, UniProt Q72547). The test can be described thus: Inhibition of HIV-1 reverse transcriptase.
Test [3] concerns Human immunodeficiency virus type 1 reverse transcriptase (Human immunodeficiency virus 1), Q72547 [K103N].
Test [4] concerns the target Human immunodeficiency virus type 1 reverse transcriptase (Human immunodeficiency virus 1) (UniProt Q72547).
Test [5] has as its system Human immunodeficiency virus type 1 reverse transcriptase (Human immunodeficiency virus 1), Q72547 [UNDEFINED MUTATION].

`O=C1Nc2ccc(Cl)cc2[C@@](C#CC2CC2)(C(F)(F)F)[C@H]1OCC1CC1` showed an IC90 in test [1] of 130 nM. Further, the pIC50 in test [2] is 5.84.

Regarding `CCCO[C@H]1C(=O)Nc2ccc(Cl)cc2[C@@]1(C#CC1CC1)C(F)(F)F`, the IC90 in test [1] was 62 nM. The same compound gave a pIC50 in test [2] of 5.98.

Turning to `Nc1ccc(CO[C@H]2C(=O)Nc3ccc(Cl)cc3[C@@]2(C#CC2CC2)C(F)(F)F)cc1F`, in test [1], the 90% effect level (IC90) was put at 26 nM. In test [2], this compound had a pIC50 of 6.62.

In test [1], `CC(=O)N[C@H]1C(=O)Nc2ccc(Cl)cc2[C@@]1(C#CC1CC1)C(F)(F)F` came in with an IC90 of 917 nM. The pIC50 in test [2] is < 5.70.

On to `O=C1Nc2ccc(Cl)cc2[C@@](C#CC2CC2)(C(F)(F)F)[C@H]1O`, for which the IC90 in test [1] turned out to be 637 nM. Besides, the pIC50 in test [2] is < 5.70.

Compound `COC(=O)N[C@H]1C(=O)Nc2ccc(Cl)cc2[C@@]1(C#CC1CC1)C(F)(F)F` showed an IC90 in test [1] of 212 nM. For the same compound, in test [2], the pIC50 is < 5.70.

The compound `O=C1Nc2ccc(Cl)cc2[C@@](C#CC2CC2)(C(F)(F)F)[C@H]1OCc1cccnc1` had an IC90 in test [1] of 20 nM. In addition, in test [2], the pIC50 was 6.36.

As for `Nc1cccc(CO[C@H]2C(=O)Nc3ccc(Cl)cc3[C@@]2(C#CC2CC2)C(F)(F)F)c1`, in test [1], the IC90 turned out to be 138 nM. The compound also had a pIC50 in test [2] of 5.84.

`O=C1Nc2ccc(Cl)cc2[C@@](C#CC2CC2)(C(F)(F)F)[C@H]1OCc1ccccn1` yielded an IC90 in test [1] of 140 nM. Further, the pIC50 in test [2] is 5.80.

As for `O=C1Nc2ccc(Cl)cc2[C@@](C#CC2CC2)(C(F)(F)F)[C@H]1OCc1ccccc1`, the IC90 in test [1] was 71 nM. In addition, the pIC50 in test [2] is 6.36.

For the compound `Nc1ccccc1CO[C@H]1C(=O)Nc2ccc(Cl)cc2[C@@]1(C#CC1CC1)C(F)(F)F`, the IC90 in test [1] worked out at 115 nM. Also, in test [2], the pIC50 is 5.99.

With `CC(C)=CCO[C@H]1C(=O)Nc2ccc(Cl)cc2[C@@]1(C#CC1CC1)C(F)(F)F`, the IC90 in test [1] was > 1000 nM. In test [2], the pIC50 is < 5.70.

With `O=C1Nc2ccc(Cl)cc2[C@@](C#CC2CC2)(C(F)(F)F)[C@H]1OCc1ccccc1F`, it took 140 nM to reach the 90% level in test [1] (IC90). The compound further had a pIC50 in test [2] of 5.89.

Turning to `O=C1C[C@](C#CC2CC2)(C(F)(F)F)c2cc(Cl)ccc2N1`, the results for the IC90 in test [1], in test [3] and in test [4] were 14 nM, 1770 nM and 992 nM, respectively. This compound gave a pIC50 in test [2] of 6.89.

Compound `O=C1Nc2ccc(Cl)cc2[C@@](C#CC2CC2)(C(F)(F)F)[C@H]1OCc1ccc(F)cc1` had an IC90 in test [1] of 112 nM. For the same compound, in test [2], the pIC50 is 6.05.

In test [5], `O=C1Nc2ccc(Cl)cc2[C@@](C#CC2CC2)(C(F)(F)F)[C@H]1OCc1ccncc1` displayed a C90 of 4.83 µM. Further, the IC90 in test [1] stood at 19 nM; in test [3], 50 nM; in test [4], 23 nM. Besides, the pIC50 in test [2] was 6.89.

`Nc1ccc(CO[C@H]2C(=O)Nc3ccc(Cl)cc3[C@@]2(C#CC2CC2)C(F)(F)F)cc1` had a C90 in test [5] of 3.85 µM. Besides, the IC90 in test [1] is 21 nM; in test [3] it was 1080 nM; in test [4] it was 49 nM. The pIC50 in test [2] was 6.39.

For the compound `O=C1Nc2ccc(Cl)cc2[C@@](C#CC2CC2)(C(F)(F)F)[C@H]1NCc1ccccc1`, the IC90 in test [1] was determined as 218 nM. Further, the pIC50 in test [2] was < 5.70.

`O=C1Nc2ccc(Cl)cc2[C@@](C#CC2CC2)(C(F)(F)F)[C@H]1OCc1cccc(F)c1` had an IC90 in test [1] of 201 nM. This compound also showed a pIC50 in test [2] of 5.75.

Usually IC90 stands for the point of the concentration-response curve where the effect stands at 90%. One may read the pIC50 as the IC50 on a negative log10 scale, so that one unit is a factor of ten. Read a low pIC50 as a large IC50.
